Patent US20080279957A1, “Immunomodulating compositions from bile” (Lorus Therapeutics Inc., priority 2000, published 2008)
Values joined by “and” are separate entries in the source; they are usually repeats but may differ in a detail not shown here. Equal entries are not always repeated.

How the values were obtained:
Format in all cases: cell-based
[1] = tested on: human PBMN; assay: Direct effect of composition on cytokine production by PBMN (IL-1α, IL-1β, IL-6, IL-8, GM-CSF, IFN-γ, IL-4; ELISA); conditions: LPS 1 μg, 24 hrs
[2] = tested on: human PBMN; assay: Direct TNF release from PBMN by composition in the absence of LPS (ELISA); conditions: 24 hrs; seven patient samples
Protocol: (§1) Peripheral blood mononuclear cells (PBMNs) were isolated by gradient centrifugation on Ficoll-Hypaque (Pharmacia). The PBMN were washed twice with phosphate buffered saline (PBS), counted and resuspended in RPMI 1640 culture medium (Gibco Labs) at a concentration of 10^6 cells/0.5 ml. These cells were cultured in 24 well, flat-bottomed tissue culture plates (Falcon, Becton, Dickinson). […] The total volume was then made up to 1 ml/well with RPMI. As control, PBS was used instead of composition. The cells were cultured for 2, 6, 24, 48 and 72 hours at 37° C. in a humidified 5% CO2 incubator. At the end of each incubation period, the cells were harvested and cell free culture fluids were obtained by centrifugation at 9000 rpm for 10 minutes. The samples were then stored at −70° C. until ELISA for cytokines was carried out (within 2 weeks).
The direct stimulatory effect of Batch B0203 was tested at different volumes and then at different times.
Batch B0203 stimulated maximum TNF-release at about 100 μl (Table 16). […] Thus, the composition was able to stimulate TNF-release on its own, that is in the absence of LPS and the curves for TNF-release were similar to when the composition and LPS were combined.

[3] = tested on: human PBMN; assay: LPS-induced release of TNF by PBMN, LPS plus composition or fractions (Example 9)
Protocol: as §1, with “In the studies of TNF, whole blood was drawn from 5 healthy subjects into heparinized Vacutainer tubes. Peripheral” for “Peripheral”, “As control, PBS was used instead of composition.” left out
The effect of different volumes of the compositions of the invention in inhibiting LPS stimulated release of TNF was examined.
This separation technique is used for small polar substances. […] The precipitate and the soluble fraction were separated. Both the precipitate and soluble fraction were taken to dryness by lyophilization. The precipitate and soluble fraction were reconstituted in aqueous solutions and both analyzed by RP-HPLC and tested for TNF-α releasing activity.
In the next series of experiments, the activity of the precipitate and supernatants were evaluated after their separation by C18 RP-HPLC. The precipitate and supernatant were collected as 2 pools from RP-HPLC: 2 to 21 min and 21 to 46 min.

[4] = tested on: human PBMN; assay: TNF release by PBMN with LPS plus composition in the presence of Polymyxin
Protocol: as §1, with “In the studies of TNF, whole blood was drawn from 5 healthy subjects into heparinized Vacutainer tubes. Peripheral” for “Peripheral”
Polymyxin inhibits the action of endotoxin on leukocytes. […] In the absence of polymyxin, LPS induces 517 pg/ml of TNF-α, whereas in the presence of Polymyxin 11 pg/ml of TNF-α is released.
Initially, the effect of different fractions were examined in the presence of Polymyxin. […] Batch BO213 was 369 and high. […] Therefore, whether the hyperosmolarity of the samples was inhibiting or enhancing TNF-α release was investigated as set out below.

[5] = tested on: human peripheral blood mononuclear cells (PBMN); assay: Survival of PBMN, trypan blue dye exclusion; conditions: Patient
From the text: At the end of this period, the number of surviving cells was estimated by trypan blue dye exclusion.

[6] = LPS 50 ng, first line printed LPS (1) (Table 31)
[7] = LPS 50 ng, second line printed LPS (1) (Table 31)
[8] = second LPS section, LPS 1 μg/well, 24 hrs
[9] = second LPS section, LPS 1 μg/well, 48 hrs
[10] = second LPS section, LPS 10 μg/well, 24 hrs
[11] = second LPS section, LPS 10 μg/well, 48 hrs

Substance: Lipopolysaccharide [LPS]
- GM-CSF released [1]: 54 ± 20 pg/mL
- IFN-γ released [1]: 54 ± 94 pg/mL
- IL-1β released [1]: 965 ± 99 pg/mL
- IL-4 released [1]: <3.0 pg/mL
- IL-6 released [1]: 2016 ± 41 pg/mL
- IL-1α released ([1]; eight patient samples): 315 ± 117 pg/mL
- TNF Released [2]: 1501 ± 284 pg/mL
- TNF Released ([3]; 1X 199 Medium, LPS 10 ng/10 μl, 1 patient): 124 pg/mL
- TNF Released ([3]; 1X 199 Medium, LPS 50 ng/10 μl, 1 patient): 155 pg/mL
- TNF Released ([3]; 1X 199 Medium, LPS 100 ng/10 μl, 1 patient): 147 pg/mL
- TNF Released ([3]; 1X 199 Medium, LPS 200 ng/10 μl, 1 patient): 213 pg/mL
- TNF Released ([3]; 1X 199 Medium, LPS 1000 ng/10 μl, 1 patient): 404 pg/mL
- TNF Released ([3]; 1640 RPMI Medium, LPS 50 ng/10 μl, 1 patient): 356 pg/mL
- TNF Released ([3]; 1640 RPMI Medium, LPS 100 ng/10 μl, 1 patient): 323 pg/mL
- TNF Released ([3]; 1640 RPMI Medium, LPS 200 ng/10 μl, 1 patient): 455 pg/mL
- TNF Released ([3]; 1640 RPMI Medium, LPS 1000 ng/10 μl, 1 patient): 558 pg/mL
- TNF Released by LPS (50 ng/ml) ([3]; 2 hr): 697 pg/mL and 697 ± 94 pg/mL
- TNF Released by LPS (50 ng/ml) ([3]; 24 hr): 800 ± 222 pg/mL
- TNF Released by LPS (50 ng/ml) ([3]; 48 hr): 170 ± 149 pg/mL
- TNF Released by LPS (50 ng/ml) ([3]; 72 hr): 132 ± 147 pg/mL
- TNF Released -LPS ([3]; LPS 50 ng (Table 29)): 0 pg/mL
- TNF Released -LPS ([3]; LPS 50 ng (Table 30)): 0 pg/mL
- TNF Released −LPS ([3]; LPS 50 ng/10 μl (Table 24)): 0 pg/mL
- TNF Released -LPS ([3]; LPS 50 ng/10 μl (Table 25)): 0 pg/mL
- TNF Released -LPS ([3]; LPS 50 ng/10 μl (Table 26)): 0 pg/mL
- TNF Released Total ([3]; LPS 50 ng/10 μl, 1X 199 Medium, 2 patients (Table 26)): 136 ± 38 pg/mL
- TNF Released Total ([3]; LPS 50 ng/10 μl, 1X 199 Medium, 5 patients (Table 24)): 161 ± 50 pg/mL
- TNF Released Total ([3]; LPS 50 ng/10 μl, 199 Medium, 2 patients (Table 25)): 194 ± 93 pg/mL
- TNF Released Total ([3]; LPS 50 ng, 199 Medium, 5 patients (Table 29)): 322 ± 115 pg/mL
- TNF Released Total ([3]; LPS 50 ng, 199 Medium, 5 patients (Table 30)): 99 ± 43 pg/mL
- TNF Released -LPS [3, 6]: 0 pg/mL
- TNF Released Total [3, 6]: 136 ± 62 pg/mL
- TNF Released -LPS [3, 7]: 0 pg/mL
- TNF Released Total [3, 7]: 81 ± 25 pg/mL
- TNF Released ([3]; LPS (50 ng/ml) alone, Table 10): 915 ± 763
- TNF Released −LPS ([3]; absence of Polymyxin, 200 μl, 5 patients (Table 22)): 0 pg/mL
- TNF Released Total ([3]; absence of Polymyxin, composition and fractions 200 μl, LPS 50 ng/10 μl, 5 patients (Table 22)): 219 pg/mL
- TNF Released −LPS ([3]; absence of Polymyxin, footnote 200 μl, 3 patients (Table 23)): 0 pg/mL
- TNF Released Total ([3]; absence of Polymyxin, footnote: composition and fractions 200 μl, LPS 50 ng/10 μl, 3 patients (Table 23)): 195 ± 72 pg/mL
- TNF Released −LPS ([3]; no additive, LPS 50 ng/10 μl, composition 200 μl (Table 19)): 0 pg/mL
- TNF Released Total ([3]; no additive, LPS 50 ng/10 μl, composition 200 μl, 3 patients (Table 19)): 517 pg/mL and 517 ± 118 pg/mL
- TNF Released Total ([4]; Polymyxin 50.000 units/ml, composition and fractions 200 μl, LPS 50 ng/10 μl, 2 patients (Table 21)): 31 ± 31 pg/mL
- TNF Released −LPS ([4]; Polymyxin 50,000 units/ml, LPS 50 ng/10 μl, composition 200 μl (Table 19)): 0 pg/mL
- TNF Released Total ([4]; Polymyxin 50,000 units/ml, LPS 50 ng/10 μl, composition 200 μl, 8 patients (Table 19)): 11 pg/mL and 11 ± 7 pg/mL
- TNF Released Total ([4]; Polymyxin 50,000 units/ml, composition and fractions 200 μl, LPS 50 ng/10 μl, 5 patients (Table 20)): 40 ± 25 pg/mL
- TNF Released −LPS ([4]; Polymyxin, 200 μl, 2 patients (Table 21)): 0 pg/mL
- TNF Released −LPS ([4]; Polymyxin, 200 μl, 5 patients (Table 20)): 0 pg/mL
- % viable ([5]; LPS 1 μg/well, 24 hrs): 43%
- No. of Live PBMN per Well by Trypan Blue ([5]; LPS 1 μg/well, 24 hrs): 0.30 ×10^6
- % viable ([5]; LPS 1 μg/well, 48 hrs): 40%
- No. of Live PBMN per Well by Trypan Blue ([5]; LPS 1 μg/well, 48 hrs): 0.28 ×10^6
- % viable ([5]; LPS 10 μg/well, 24 hrs): 36%
- No. of Live PBMN per Well by Trypan Blue ([5]; LPS 10 μg/well, 24 hrs): 0.25 ×10^6
- % viable ([5]; LPS 10 μg/well, 48 hrs): 18%
- No. of Live PBMN per Well by Trypan Blue ([5]; LPS 10 μg/well, 48 hrs): 0.13 ×10^6
- % viable [5, 8]: 46%
- No. of Live PBMN per Well by Trypan Blue [5, 8]: 0.60 ×10^6
- % viable [5, 9]: 41%
- No. of Live PBMN per Well by Trypan Blue [5, 9]: 0.53 ×10^6
- % viable [5, 10]: 12%
- No. of Live PBMN per Well by Trypan Blue [5, 10]: 0.15 ×10^6
- % viable [5, 11]: 12%
- No. of Live PBMN per Well by Trypan Blue [5, 11]: 0.15 ×10^6
